# Measurements as given in patent US8524861B2, “Treatment of bacterial infections” (priority 2004, dated 2013).
# How the values were obtained:
# Format in all cases: cell-based
# [1] = tested on: Streptococcus pneumoniae
# Description: The peptides were examined for antibacterial efficacy against Staphylococcus aureus. To test the efficacy of peptides, dilutions of test peptides or PBS (for use as a control) were prepared in LB broth, and 100 μl aliquots of these placed in 96-well plates. A vial of planktonic bacterial stock was thawed in a 37° C. incubator and diluted to the level previously determined which would produce log phase growth after overnight incubation (see above). 25 μl of this bacterial dilution was then added to the test wells (some wells containing LB broth without peptide were left without any bacterial inoculation, these being used as a blank). After overnight growth, the concentration of bacteria in individual wells was assessed by measuring absorbance at 620 nm, in a microplate spectrophotometer. The average absorbance of wells for specific concentrations of peptides was calculated, and from this the percentage inhibition (relative to untreated wells) was also calculated and plotted against concentration (along with an estimate of error on that % inhibition). […] The inventor constructed an expanded library of peptides derived from either apolipoprotein B or apolipoprotein E in order to further evaluate polypeptides in accordance with the invention. Further experiments were then conducted to investigate the antibacterial activity of this peptide library against the bacteria P. aeroginosa, S. aureus and S. pneumoniae. The methods used to determine the IC50 values for each peptide were as described in the Example 1.
# [2] = tested on: Pseudomonas aeruginosa; assay: Antibacterial efficacy on peptide pre-treated contact lenses; conditions: lens pre-treated with 250 μM peptide for 2 hours
# Description: Referring to FIG. 2, there is shown a bar graph illustrating growth of Pseudomonas aeruginosa overnight on Johnson and Johnson Acuvue contact lenses following pre-treatment with polypeptide GIN 1p, or a control treatment. Growth was measured by examination by light microscopy, and by assessing metabolic activity of any bacteria present using MTT reduction. The data illustrates the efficacy of the antibacterial nature of the peptides according to the invention when applied to contact lenses. Antibacterial activity was assessed by measuring MTT reduction.
# Lenses were placed in 24-well plates before treatment with 75 μl of 250 μM GIN-1p in PBS (pH7.4) or with 75 μl of PBS and incubated for 2 hours at […], before removal of these solutions from the lens by aspiration. A further 1 ml of PBS was then added to the wells to wash away any loosely attached peptide, before aspiration of this wash solution. […]
# The plates were returned to the incubator at 37° C. overnight. […] The degree of formazan production was assessed by measuring absorbance at 540 nm for aliquots of these solutions; these values are shown in FIG. 2, and represent the average for four lenses, with the bars showing standard deviation. […]
# [3] = tested on: Saccharomyces cerevisiae yeast cells (strain GenT01); assay: Gentronix GreenScreen GC yeast genotoxicity assay; conditions: concentrations up to and including 100 μM, FIGS. 6A-6C
# Description: A liquid handling robot is used to produce a serial dilution series of each test compound in a 96-well, black microplate with an optically clear base. […] In addition, a series of genotoxic and cytotoxic standards and non-toxic controls are run to provide internal quality control. The plates are covered with a breathable membrane and incubated overnight, without shaking, at 25° C.
# After incubation, the microplates are uncovered and data collected using a Tecan Ultra 384 microplate reader. This instrument provides measurements of light absorbance and fluorescence in microplates; a standard fluorescein filter set (excitation 485/25 and emission 535/25) is used. Absorbance is read at 620 nm and is proportional to cell proliferation (which is lowered by toxic analytes). Fluorescence is proportional to the activity of the DNA repair system (increased by genotoxic analytes). The yeast cultures used are a genetically modified strain that express a green fluorescent protein whenever the cells carry out DNA damage repair. Fluorescence is normalised to the absorbance signal to correct for variation in cell yield caused by any cytolytic activity of the test compounds against the yeast cells. This produces a “fluorescence per cell” measurement termed “brightness”. In addition to the Gentronix Assay yeast strain (GenT01), a control Saccharomyces cerevisiae strain (GenC01) is also used, which is identical except for its ability to produce green fluorescent protein is disabled. This strain is used to provide a control to allow correction for substances which may be either autofluorescent themselves or which induce an autofluorescence in the yeast cells. The data collected is simply transferred into a Excel template where result evaluation sheets are automatically produced. The sheets contain the processed results in both a graphical and tabulated format, with automatic assessment of the result, i.e. positive or negative, and calculation of the lowest effective concentration (LEC), for both genotoxicity and cytotoxicity. […]
# [4] = tested on: Pseudomonas aeruginosa
# Description: To test the effect of treatment of the polypeptides according to the invention by autoclaving, a 400 μM stock solution of GIN1p was prepared in PBS, and 420 μl aliquots were placed in four Eppendorf tubes (with screw lids). After securing the lids, two of the tubes were loaded into a metal rack held within a Pyrex beaker, and placed into a Prestige Medical Clinical Autoclave. The remaining two tubes were left untreated, as a control. The autoclave was then activated, and underwent two autoclave cycles, each of which involved exposure of the peptide solutions to 126° C. for 11 min. Finally, efficacy of the two autoclaved and the two control peptide samples against P. aeruginosa was tested as previously described.
# Referring to FIG. 7, there is shown the level of growth of Pseudomonas aeruginosa after exposure of a bacterial inoculum to various concentrations of GIN 1p (a polypeptide in accordance with the present invention) which had been either autoclaved or without autoclaving, expressed as a % of growth for untreated bacteria. Accordingly, polypeptides according to the invention are therefore suitable for use with products, which would normally be sterilised by autoclaving during the manufacturing procedure.
substance,measurement,setting,value
Ac-LRKLRKRLLLRKLRKRLL-NH2 [MU_10],IC50,[1],45 µM
same,Appearance of solution containing pre-treated contact lens after overnight incubation,"[2]; 10^4 challenge organisms, FIG. 3",colourless
same,Bacterial growth on contact lens surface by light micrograph after overnight incubation,[2]; FIG. 4,minimal bacterial growth
same,Genotoxic response in test yeast strain (GenT01),[3],failed to produce any genotoxic response
same,IC50,[4],~2 µM
